From PubChem BioAssay (NCI) come the findings set out here.

Structures are written as SMILES.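 Interpolation was linear, between the two tested concentrations surrounding the appropriate level; five concentrations were tested over 48 hours in 96-well plates. TGI: concentration producing complete growth inhibition.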

Test systems include ACHN renal; CAKI-1 renal; HCT-116 colon; HCT-15 colon; NCI-H460 lung; OVCAR-3 ovarian; OVCAR-4 ovarian; OVCAR-5 ovarian; OVCAR-8 ovarian; RPMI-8226 leukemia; RXF 393 renal; SF-539 CNS; SK-MEL-2 melanoma; SK-MEL-28 melanoma; T-47D breast; U251 CNS; UACC-257 melanoma; UACC-62 melanoma; HOP-92 NSCLC.
Experiment in all cases: inhibition of tumour cell growth, NCI panel, 48 h

In the case of `C/C(CC/C(C)=N/O)=N\O`, the TGI with ACHN renal, in the experiment with CAKI-1 renal, in the experiment with HCT-116 colon, in the experiment with HCT-15 colon, in the experiment with NCI-H460 lung and in the experiment on OVCAR-3 ovarian was greater than 100 µM each time. The TGI with OVCAR-4 ovarian, in the experiment with OVCAR-5 ovarian, in the experiment with OVCAR-8 ovarian, in the experiment on RPMI-8226 leukemia, with RXF 393 renal and in the experiment on SF-539 CNS was greater than 100 µM throughout. Moreover, the TGI in the experiment on SK-MEL-2 melanoma, with SK-MEL-28 melanoma, in the experiment with T-47D breast, in the experiment with U251 CNS, in the experiment with UACC-257 melanoma and in the experiment on UACC-62 melanoma was greater than 100 µM each time.

In the case of `CC(C)(C)c1cc(C(=O)Nc2cc(Br)c(Br)cc2S(N)(=O)=O)cc(C(C)(C)C)c1O`, the TGI in the experiment with ACHN renal was 23.4 µM; with CAKI-1 renal, 22.8 µM; with HCT-116 colon it was 20.5 µM; with HCT-15 colon, 16.8 µM; in the experiment on OVCAR-3 ovarian it was 21.1 µM; in the experiment on OVCAR-4 ovarian, 28.7 µM. Moreover, the TGI in the experiment with OVCAR-5 ovarian was 24.9 µM; in the experiment with OVCAR-8 ovarian, 26.6 µM; in the experiment on RPMI-8226 leukemia it was greater than 100 µM; with RXF 393 renal, 23.1 µM; in the experiment on SF-539 CNS, 32.7 µM; with SK-MEL-2 melanoma, 22.7 µM. Moreover, the TGI in the experiment with SK-MEL-28 melanoma came out at 26.2 µM; with T-47D breast, 15.6 µM; with U251 CNS, 26.6 µM; with UACC-257 melanoma, 33.1 µM; in the experiment with UACC-62 melanoma, 23.1 µM.

For `CN(C)CCOc1cccc2c1C(=O)c1ccccc1C2=O`, the TGI is greater than 100 µM in the experiment with ACHN renal; 43.8 µM in the experiment on CAKI-1 renal; 17.2 µM in the experiment on HCT-116 colon; 27.3 µM in the experiment with HCT-15 colon; 29 µM in the experiment on HOP-92 NSCLC; 19.2 µM in the experiment on NCI-H460 lung. Besides, the TGI with OVCAR-3 ovarian amounted to 64 µM; in the experiment on OVCAR-4 ovarian, 20.4 µM; with OVCAR-5 ovarian it was 40.8 µM; in the experiment with OVCAR-8 ovarian it was 56 µM; in the experiment with RXF 393 renal it was 27.3 µM; in the experiment on SF-539 CNS it was 22.6 µM. Further, the TGI in the experiment on SK-MEL-2 melanoma worked out at 31.4 µM; in the experiment on SK-MEL-28 melanoma it was 28.6 µM; with U251 CNS, 72.5 µM; in the experiment on UACC-257 melanoma, 25.8 µM; with UACC-62 melanoma, 29.8 µM.

Consider `CCc1ccc(N=Cc2cc(OC)c(OC)c(OC)c2)cc1`, for which the TGI in the experiment on ACHN renal, in the experiment with CAKI-1 renal, in the experiment on HCT-116 colon, in the experiment on HCT-15 colon, with HOP-92 NSCLC and with NCI-H460 lung was greater than 100 µM in each case. In addition, the TGI in the experiment with OVCAR-3 ovarian was greater than 100 µM; with OVCAR-4 ovarian, greater than 100 µM; in the experiment on OVCAR-5 ovarian it was greater than 100 µM; with OVCAR-8 ovarian, greater than 100 µM; with RPMI-8226 leukemia, 47.2 µM; in the experiment on RXF 393 renal, greater than 100 µM. Further, the TGI with SF-539 CNS, in the experiment on SK-MEL-2 melanoma, in the experiment on SK-MEL-28 melanoma, with U251 CNS, in the experiment with UACC-257 melanoma and with UACC-62 melanoma was greater than 100 µM in each case.

`COc1ccc(/C=C2\CCC(C)C3=C(c4ccc(OC)c(OC)c4)C(C#N)=C(N)OC32)cc1OC` (centres undefined): the TGI was greater than 100 µM with ACHN renal; greater than 100 µM in the experiment on CAKI-1 renal; 20.2 µM with HCT-116 colon; 38 µM in the experiment on HCT-15 colon; 11.1 µM with NCI-H460 lung; 48.3 µM in the experiment on OVCAR-3 ovarian. Moreover, the TGI in the experiment with OVCAR-5 ovarian was 23.6 µM; with OVCAR-8 ovarian, greater than 100 µM; with RPMI-8226 leukemia it was 5.76 µM; with RXF 393 renal it was 3.99 µM; with SK-MEL-2 melanoma, 5.63 µM; in the experiment on SK-MEL-28 melanoma, 31.7 µM. The TGI with T-47D breast was 7.97 µM; with U251 CNS, greater than 100 µM; in the experiment with UACC-257 melanoma it was 37 µM; in the experiment on UACC-62 melanoma it was 7.34 µM.

As to `NC(Cc1ccc(S(=O)(=O)O)cc1)C(=O)NC(CCCCNC(=O)NCCCCC(NC(=O)C(N)Cc1ccc(S(=O)(=O)O)cc1)C(=O)NC(Cc1ccc(S(=O)(=O)O)cc1)C(=O)O)C(=O)NC(Cc1ccc(S(=O)(=O)O)cc1)C(=O)O` (centres undefined), the TGI in the experiment with ACHN renal, in the experiment with CAKI-1 renal, with HCT-116 colon, in the experiment with HCT-15 colon, with NCI-H460 lung and in the experiment on OVCAR-3 ovarian was greater than 100 µM each time. The TGI with OVCAR-4 ovarian, in the experiment on OVCAR-5 ovarian, in the experiment with OVCAR-8 ovarian, in the experiment on RPMI-8226 leukemia, in the experiment on RXF 393 renal and in the experiment on SF-539 CNS was greater than 100 µM each time. For the same compound, the TGI in the experiment with SK-MEL-2 melanoma, in the experiment on SK-MEL-28 melanoma, in the experiment with T-47D breast, in the experiment on U251 CNS, in the experiment on UACC-257 melanoma and with UACC-62 melanoma was greater than 100 µM throughout.
